Experimental data reported in article PMC10299677, “Fluorinated Benzofuran and Dihydrobenzofuran as Anti-Inflammatory and Potential Anticancer Agents” (International Journal of Molecular Sciences, 2023).
“Also recorded” adds a separate entry of the source.

Legend:
[1] = molecular target: T1, COX-2 (Mus musculus, UniProt Q05769); assay: COX-2 activity: PGE2 from exogenous arachidonic acid in aspirin-pretreated, 24 h LPS-treated macrophages; format: cell-based, C57BL/6J mice; details: 10 µM arachidonic acid; for effect on COX-2 activity: 50 µM, aspirin-pretreated LPS-treated macrophages; for IC50: aspirin-pretreated, 24 h LPS-treated macrophages
T1 construct: prior to the addition of LPS for 24 h to induce COX-2; endogenous in cells; host or cells: Bone marrow-derived macrophages from C57BL/6J mice, aspirin-pretreated, then LPS 24 h
T1 sequence (Q05769 18-604): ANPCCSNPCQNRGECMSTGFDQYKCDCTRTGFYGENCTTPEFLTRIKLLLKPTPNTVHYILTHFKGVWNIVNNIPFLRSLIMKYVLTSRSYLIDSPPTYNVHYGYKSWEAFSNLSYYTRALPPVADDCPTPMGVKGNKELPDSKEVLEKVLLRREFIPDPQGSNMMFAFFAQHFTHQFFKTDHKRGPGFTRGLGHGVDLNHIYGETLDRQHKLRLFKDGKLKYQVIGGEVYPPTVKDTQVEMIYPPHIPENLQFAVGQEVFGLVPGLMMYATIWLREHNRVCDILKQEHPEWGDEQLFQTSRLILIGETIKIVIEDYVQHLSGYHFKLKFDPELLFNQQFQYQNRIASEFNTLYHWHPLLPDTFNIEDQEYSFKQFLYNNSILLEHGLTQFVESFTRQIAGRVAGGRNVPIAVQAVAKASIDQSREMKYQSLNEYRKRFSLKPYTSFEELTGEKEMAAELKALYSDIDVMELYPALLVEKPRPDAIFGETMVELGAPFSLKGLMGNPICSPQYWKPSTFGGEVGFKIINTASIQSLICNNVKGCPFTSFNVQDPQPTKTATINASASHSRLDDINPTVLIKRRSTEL
Method: (A) Illustration for COX-1 activity assay. […] (B) COX-1 activity. […] (C) Illustration for COX-2 activity determination. Macrophages are treated with 10 µM of aspirin (ASA) for 30 min to block basal COX activity, washed, and treated with 10 ng/mL LPS for 24 h to induce COX-2. Cells are then washed and incubated 30 min with 50 µM of the different compounds prior to the addition of 10 µM of AA. The produced PGE2 mainly reflects COX-2 activity. (D) COX-2 activity. Percentage of LPS-treated cells was calculated, and data are represented as mean ± SEM (n = 4); * p < 0.05 versus AA for COX-1 activity, and versus LPS + ASA + AA for COX-2 activity (one-way ANOVA followed by Dunnett’s test).
For both COX-1 and COX-2 assays, the benzofuran compounds were then added to the cells for 30 min prior to the incubation with 10 µM arachidonic acid for another 30 min. PGE2 was then measured using an enzyme immunoassay, as described previously.
(§1) IL-6, CCL2, nitrite (for NO), and PGE2 concentrations from 3–5 independent experiments were expressed as percentage of LPS alone and as mean ± SEM. COX activity was determined as percentage of PGE2 produced from exogenous arachidonic acid. Curve fitting and calculation of IC50 values were performed using GraphPad Prism (version 9.5.1 Software, La Jolla, CA, USA).

[2] = system: HCT116 cells; assay: TUNEL assay for apoptosis (DNA cleavage) in HCT116; format: cell-based, human; details: 10, 25 and 50 µM, 72 h
Method: Terminal deoxynucleotidyl transferase dUTP nick-end labeling (TUNEL) assay (Sigma Aldrich 11684795910) was conducted to detect late phase of apoptosis in HCT116 cells. Cells were plated in 6-well plate (200,000 cells per well) for 24 h, and treated with compounds 1 and 2 at 10, 25, and 50 µM for 72 h. Adherent cells and cells in supernatants were collected and fixed with 4% paraformaldehyde for 2 days and then treated with PBS containing 0.1% Triton X-100 at 4 °C for 2 min. Cells were then stained with the TUNEL reagent for 1 h, and positive signals were quantified using the Guava EasyCyte8 Flow Cytometer-Millipore according to the manufacturer’s instructions.
Densitometric analyses were performed using ImageJ software (NIH, MA, USA). The ratio of the different analyzed bands to β-actin was determined and data are represented as fold change compared to the LPS-treated cells. Percentage of viable cells for proliferation assay was determined as percentage to control (non-treated cells). For TUNEL assay, apoptotic cells were quantified, and results were expressed as percentage to positive cells (cleaved DNA) compared to control (non-treated cells). Statistical analysis was performed using one-way ANOVA, followed by Dunnett’s multiple comparisons test using GraphPad Prism software. Differences were considered significant when p < 0.05.

[3] = system: NO; assay: NO (nitrite) formation in LPS-treated macrophages (BMDM); format: cell-based, C57BL/6J mice; details: for effect on NO production: 50 µM, LPS 24 h; for IC50: compounds 30 min prior to 10 ng/mL LPS for 24 h
Method: C57BL/6J (10–15 weeks old) male mice were obtained from the animal care facility at the American University of Beirut. All animal procedures were performed following the recommendations of the IACUC (Institutional Animal Care and Use Committee approval 16-09-M379). BMDMs were prepared and characterized as described previously by our group. BMDMs were isolated from C57BL/6J mice by flushing the femur and tibia with RPMI-1640 culture media (Sigma-Aldrich R7388), and cells were collected and centrifuged at 300× g for 5 min. The supernatant was discarded, and the pellet was resuspended in 2 mL red blood lysis 10% (Sigma-Aldrich R7767) medium in PBS and incubated for 5 min at room temperature. After diluting the suspension of cells with 5 mL of RPMI containing 10% FBS and 1% penicillin–streptomycin, cells were centrifuged at 300× g for 5 min, and the cell pellet was resuspended in RPMI media containing 10% FBS supplemented with 15% L929-conditioned medium containing macrophage-colony stimulating factor (M-CSF1) and plated on […]. Cells were allowed to proliferate and differentiate for 5–6 days. Cells were harvested, washed, and allowed to adhere overnight in RPMI containing 10% FBS for treatment. Cells were previously characterized by flow cytometry as macrophages using this method. […] Cells were plated at 0.8 × 10^6 cells per 3.8 cm^2 well [27].
BMDMs were then treated with different concentrations of the benzofuran and dihydrobenzofuran derivatives for 30 min prior to the addition of 10 ng/mL LPS for 24 h. […] The supernatants were assessed for IL-6, PGE2, CCL2, and nitrite, the stable derivative of NO, as described previously.
as §1

[4] = system: CCL2 mRNA; assay: LPS-dependent CCL2 mRNA in THP-1-derived macrophages (RT-PCR); format: cell-based, human; details: 50 µM, 10 ng/ml LPS 6 h
Method: F i g u re S3: Eff ect of benzofuran compounds on the lev els of LP S -dependent mRNA of CCL2 and IL-6 in THP-1 –deriv ed macrophages. Human-monoc yti c cell l ine-THP-1 wer e treat ed with PMA (25 nM for 48 hours) th en in cub ated with 50 μM compounds for 30 minutes b efo re the addit ion of 10 ng/ml LP S fo r 6 hours. Gene ex pression of IL6 and CCL2 were measur ed by RT-PCR and the v alu es wer e nor mal ized to GAPDH. Results represent means ± SEM by one way ANOVA followed by Dunnett test.

IC50 [1] | IC50 ([3]; Mus musculus, Macrophage) | IC50 [3] | SMILES | effect on COX-2 activity [1] | percentage of apoptotic cells, TUNEL [2] | effect on NO production [3] | effect on CCL2 mRNA levels [4]
13 µM | – | – | C=C(C)c1ccc2oc(CC(=O)O)c(F)c2c1 [Compound 6] | strongly reduced; also recorded: direct inhibitory effect | – | – | –
– | 5.2 µM | 5.23 µM | O=C(O)/C=C1\Oc2ccc(Br)cc2C1(F)F [Compound 3] | slight reduction | – | significantly decreased | –
28.1 µM | – | – | O=C(O)Cc1oc2ccc(-c3ccccc3)cc2c1F [Compound 5] | strongly reduced; also recorded: direct inhibitory effect | – | – | –

More lines, now with the values behind:

SMILES | IC50 [1] | IC50 ([3]; Mus musculus, Macrophage) | IC50 [3] | effect on COX-2 activity [1] | percentage of apoptotic cells, TUNEL [2] | effect on NO production [3] | effect on CCL2 mRNA levels [4]
COC(=O)CC1(O)Oc2ccc(Br)cc2C1(F)F (stereo not shown) [Compound 8] | – | – | – | without any effect | – | – | –
O=C(O)/C=C1/Oc2ccc(Br)cc2C1(F)F [Compound 2] | – | 2.4 µM | 2.42 µM | – | concentration-dependent increase | significantly decreased | decreased significantly
COC(=O)/C=C1/Oc2ccc(Br)cc2C1(F)F [Compound 1] | – | – | – | – | concentration-dependent increase | – | decreased significantly
